The text below walks through data of patent publication US12252488B2 (Nimbus Saturn, Inc., priority 2021, dated 2025).

Broadly, the IC50 is the midpoint of a concentration-inhibition curve.

Structures are written as SMILES.

T1 sequence (Q92918 whole entry): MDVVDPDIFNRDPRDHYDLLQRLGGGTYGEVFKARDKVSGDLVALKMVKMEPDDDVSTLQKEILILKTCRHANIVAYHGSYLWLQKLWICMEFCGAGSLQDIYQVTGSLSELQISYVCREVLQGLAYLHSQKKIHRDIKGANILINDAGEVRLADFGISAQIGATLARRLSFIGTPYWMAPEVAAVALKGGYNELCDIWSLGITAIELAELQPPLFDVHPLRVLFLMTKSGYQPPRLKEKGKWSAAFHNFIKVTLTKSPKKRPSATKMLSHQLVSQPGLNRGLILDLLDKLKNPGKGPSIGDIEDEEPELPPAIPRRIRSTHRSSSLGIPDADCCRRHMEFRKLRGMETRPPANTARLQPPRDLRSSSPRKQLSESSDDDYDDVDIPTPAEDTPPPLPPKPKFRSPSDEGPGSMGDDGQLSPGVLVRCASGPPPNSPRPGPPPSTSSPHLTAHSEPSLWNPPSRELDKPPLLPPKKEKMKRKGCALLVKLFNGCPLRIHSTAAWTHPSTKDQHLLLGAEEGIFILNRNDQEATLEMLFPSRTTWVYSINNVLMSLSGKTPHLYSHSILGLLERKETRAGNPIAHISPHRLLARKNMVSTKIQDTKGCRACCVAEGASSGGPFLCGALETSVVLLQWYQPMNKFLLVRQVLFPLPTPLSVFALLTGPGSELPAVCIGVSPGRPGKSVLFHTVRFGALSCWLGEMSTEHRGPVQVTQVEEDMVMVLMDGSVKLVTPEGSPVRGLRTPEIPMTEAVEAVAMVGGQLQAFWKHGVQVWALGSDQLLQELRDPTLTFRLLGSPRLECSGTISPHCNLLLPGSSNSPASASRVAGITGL

This assay has as its target T1, HPK1 (Homo sapiens, UniProt Q92918).
T1 construct: purchased Invitrogen
Description: HPK1 biochemical enzyme assay (microfluidic mobility shift assay). To be noted: 1000 uM (1 mM) ATP; Caliper mobility shift; 1.5 nM HPK1; 30 min preincubation; read-out: HPK1 1000UMATP caliper IC50. The procedure, abridged: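 Microfluidic mobility-shift readout with 1.5 nM HPK1 in pH 7.4 buffer; compounds (ten-point curves, top 3 μM final) preincubated 30 min with enzyme/substrate. Reaction started with 1 mM ATP and 1 μM substrate plus 5 mM MgCl2, run 60 min at RT. IC50 values binned into activity classes.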
As for `O=c1[nH]cc(-c2ccccc2)c2nc(-c3c(F)cccc3F)cc(Nc3ccc(N4CCC(O)CC4)cn3)c12` [I-56], the IC50 is above 1000 nM.

Turning to `CN1C(=O)Cc2cc(-c3cc(Nc4ccc(N5CCC(O)CC5)cn4)c4c(=O)[nH]ccc4n3)cnc21` [I-213, 4-[[5-(4-hydroxy-1-piperidyl)-2-pyridyl]amino]-2-(1-methyl-2-oxo-3H-pyrrolo[2,3-b]pyridin-5-yl)-6H-1,6-naphthyridin-5-one], the IC50 fell in the range of 100 to 1000 nM.

`C[C@@H]1COC[C@@H](C)N1c1ccc(Nc2cc(-c3ccc(NC(=O)C4CCCCC4)cc3F)nc3cc[nH]c(=O)c23)nc1` [I-191, N-[4-[4-[[5-[(3R,5R)-3,5-dimethyl-morpholin-4-yl]-2-pyridyl]amino]-5-oxo-6H-1,6-naphthyridin-2-yl]-3-fluoro-phenyl] cyclohexane-carboxamide]: the IC50 is at most 100 nM.

`O=C(Nc1ccc(-c2cc(Nc3ccc(N4CCC(O)CC4)cn3)c3c(=O)[nH]ccc3n2)c(F)c1)C1CCCCC1` [I-111, N-[3-fluoro-4-[4-[[5-(4-hydroxy-1-piperidyl)-2-pyridyl]amino]-5-oxo-6H-1,6-naphthyridin-2-yl]phenyl] cyclohexane carboxamide]: the IC50 is above 1000 nM.

With `COc1cc(-c2cc(Nc3ccc(C4CCNCC4)cn3)c3c(=O)[nH]ccc3n2)c(F)cc1C(=O)N1CCCCC1` [I-245, 2-[2-fluoro-5-methoxy-4-(piperidine-1-carbonyl)phenyl]-4-[[5-(4-piperidyl)-2-pyridyl]amino]-6H-1,6-naphthyridin-5-one], the IC50 is at most 100 nM.

For `CS(=O)(=O)c1ccc(Nc2cc(-c3c(F)cccc3F)nc3cc[nH]c(=O)c23)nc1` [I-18, 2-(2,6-difluoro-phenyl)-4-[(5-methyl-sulfonyl-2-pyridyl)amino]-6H-1,6-naphthyridin-5-one], the IC50 is above 1000 nM.

Turning to `O=c1[nH]ccc2nc(N3CCC[C@@H](O)C3)cc(Nc3ccc(N4CCC(O)CC4)cn3)c12` [I-82, 2-[(3R)-3-hydroxy-1-piperidyl]-4-[[5-(4-hydroxy-1-piperidyl)-2-pyridyl]amino]-6H-1,6-naphthyridin-5-one], the IC50 lay within 100 to 1000 nM.

For the compound `O=c1[nH]ccc2nc(C3CCNCC3)cc(Nc3ccc(N4CCC(O)CC4)cn3)c12` [I-34, 4-[[5-(4-hydroxy-1-piperidyl)-2-pyridyl]amino]-2-(4-piperidyl)-6H-1,6-naphthyridin-5-one], the IC50 lay within 100 to 1000 nM.

Consider `CC1(Cc2cc(Nc3ccc(N4CCC(O)CC4)cn3)c3c(=O)[nH]ccc3n2)COC1` [I-54, 4-[[5-(4-hydroxy-1-piperidyl)-2-pyridyl]amino]-2-[(3-methyl-oxetan-3-yl)methyl]-6H-1,6-naphthyridin-5-one], for which the IC50 was in the range of 100 to 1000 nM.

Regarding `COC1CCN(c2ccc(Nc3cc(-c4ccc(NC(=O)C5CCCCC5)cc4F)nc4cc[nH]c(=O)c34)nc2)CC1` [I-204, N-[3-fluoro-4-[4-[[5-(4-methoxy-1-piperidyl)-2-pyridyl]amino]-5-oxo-6H-1,6-naphthyridin-2-yl]phenyl] cyclohexane carboxamide], the IC50 is at most 100 nM.

For `O=C(Nc1ccc(-c2cc(Nc3ccc(N4CCC(O)CC4)cn3)c3c(=O)[nH]ccc3n2)c(F)c1)[C@@H]1C[C@H]2CC[C@@H]1C2` (single isomer, unassigned) [I-277], the IC50 is at most 100 nM.
